Where two headings read alike, the source gives them in different places. Blank lines part the entries; values can stand above or below the compound they belong to.
Legend:
A1-AdoR [1] = target: T1, A1-AdoR (Cavia porcellus, UniProt P47745); experiment: 3H-CPX binding to guinea pig forebrain membranes; conditions: for IC50: IC50 to reduce the binding of 3H-CPX
T1 sequence (P47745 1-326): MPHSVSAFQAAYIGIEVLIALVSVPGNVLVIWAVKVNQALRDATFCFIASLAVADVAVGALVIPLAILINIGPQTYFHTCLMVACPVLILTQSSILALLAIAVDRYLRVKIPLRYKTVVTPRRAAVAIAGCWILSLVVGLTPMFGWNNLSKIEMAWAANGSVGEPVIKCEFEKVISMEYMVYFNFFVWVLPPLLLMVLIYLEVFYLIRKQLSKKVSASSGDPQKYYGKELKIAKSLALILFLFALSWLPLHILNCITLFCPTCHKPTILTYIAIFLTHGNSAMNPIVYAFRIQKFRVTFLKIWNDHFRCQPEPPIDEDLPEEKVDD
Protocol: (§1) Membranes containing A1-AdoRs for use in radioligand binding assays were prepared from guinea pig cerebral cortex or from rat isolated epididymal adipocytes. Freshly-isolated guinea pig brain cortical tissue was homogenized in ice-cold 50 mM Tris-HCl buffer (pH 7.4) using six up and down strokes of an ice-chilled Potter-Elvejhem tissue grinder and a motor-driven teflon™ pestle. A crude membrane preparation was isolated by centrifugation of the homogenate at 15,000×g for 20 min at 4° C. The membrane pellet was resuspended in fresh Tris buffer and pelleted again by centrifugation. The final membrane pellet was suspended in Tris buffer to achieve a protein content of 1.1-1.4 mg/ml and divided into aliquots for storage at −80° C. until needed for assays. Adipocytes were isolated from 10 epididymal fat pads and suspended in a homogenization buffer (pH 7.3) containing 250 mM sucrose, 20 mM HEPES, 1 mM EDTA, 10 μg/ml leupeptin, and 5 μg/ml pepstatin. Cells were homogenized using an ice-chilled Potter-Elvehjem tissue grinder and a motor-driven teflon™ pestle. Cell membranes were separated from fat by centrifugation of the homogenate for 5 min at 1000×g at 4° C. The infranate below the fat cake was removed and placed in a centrifuge tube. Membranes were collected by centrifugation of the infranate for 30 min at 20,000×g at 4° C. Membranes were resuspended in buffer (pH 7.1 at room temperature) containing 154 mM NaCl, 10 mM MgCl2, 50 mM HEPES, 1 mM EDTA, 5 μg/ml leupeptin, 5 μg/ml pepstatin, and 5 U/ml adenosine deaminase, and stored as aliquots in liquid nitrogen until needed for assays.
(§2) The binding affinity of experimental agonists high and low affinity states of the A1-ADOR was determined. […] The presence of GTP reduces the availability of high affinity binding sites on the GPCR. Thus, the method allows for a discrimination between high and low binding affinities.
(§3) After a 3 hour incubation at room temperature. the reaction was terminated by diluting the samples with ice-cold Tris buffer and immediate collection of membranes onto glass-fiber filters (Schleicher and Schuell, Keene, N.H.) by vacuum filtration using a cell harvester (Brandel, Gaithersburg, Md.). Filters were washed quickly three times with ice-cold buffer to remove unbound radioligand. Filter discs containing trapped membranes and bound radioligand were placed in 4 ml of scintillation cocktail and radioactivity of samples was quantified using a liquid scintillation counter. […] Results of radioligand binding assays were analyzed using the Prism program from GraphPad (San Diego, Calif.).

A1-AdoR [2] = target: T2, A1-AdoR (Rattus norvegicus, UniProt P25099); experiment: 3H-CPX binding to rat adipocyte membranes; conditions: for IC50: IC50 to reduce the binding of 3H-CPX; for Ki: Ki for reduction of 3H-CPX binding
T2 sequence (P25099 1-326): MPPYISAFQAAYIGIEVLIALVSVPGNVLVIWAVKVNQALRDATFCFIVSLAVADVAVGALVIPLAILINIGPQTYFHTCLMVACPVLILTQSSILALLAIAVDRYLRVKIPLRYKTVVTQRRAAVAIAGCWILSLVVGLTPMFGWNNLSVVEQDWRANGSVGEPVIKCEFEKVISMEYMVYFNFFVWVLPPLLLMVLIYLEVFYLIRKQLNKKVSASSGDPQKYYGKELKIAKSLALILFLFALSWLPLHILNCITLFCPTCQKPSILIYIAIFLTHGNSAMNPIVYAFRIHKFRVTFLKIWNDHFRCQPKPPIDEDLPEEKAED
Protocol: as §1, §2, §3

[3] = test system: guinea pig isolated heart; experiment: Spontaneous atrial rate, isolated heart; conditions: for atrial rate: maximal effect, controls 195±6 (Compound 6) and 198±15 (CPA)
Text: Guinea pigs (Hartley) of either sex weighing 300-350 g were anaesthetized with methoxyflurane and killed by decapitation. The chest was cut open and the heart was removed quickly and rinsed in ice-cold modified Krebs-Henseleit (K-H) solution. The contents of the modified K-H solution were (in mM): NaCl 117.9, KCl 4.8, CaCl2 2.5, MgSO2 1.18, KH2PO4 1.2, Na2 EDTA 0.5, ascorbic acid 0.14, dextrose 5.5, pyruvic acid (sodium salt) 2.0, and NaHCO3 25. The K-H solution was continuously gassed with 95% oxygen and 5% CO2, and the pH was adjusted to a value of 7.4. To perfuse the heart by the Langendorff method, the transected aorta was slid onto a glass cannula and secured by a ligature. Retrograde perfusion of the aorta was initiated immediately at a constant flow of 10 ml min-′ with modified K-H solution warmed to 36.0±0.5° C. A side port in the cannula was used to connect the perfusion line to a Gould pressure transducer for measurement of coronary perfusion pressure. Coronary perfusion pressure was continuously recorded on a strip chart (Gould RS3400, Cleveland, Ohio) throughout each experiment. Coronary conductance (in ml min^−1 mmHg^−1) was calculated as the ratio of coronary flow (10 ml min^−1) to perfusion pressure (mm Hg). To facilitate the exit of fluid from the left ventricle, the leaflets of the mitral valve were trimmed with fine spring-handled scissors. When appropriate, hearts were paced at a constant rate using external electrodes. After completion of dissection and instrumentation (see below) for measurement of either atrial rate, stimulus-to-His bundle (S-H) interval, monophasic action potentials, or coronary perfusion pressure, each heart was allowed to equilibrate for 20-40 min before the administration of drug. Experimental interventions were always preceded and followed by control measurements. Criteria for exclusion of hearts from study were (1) a coronary perfusion pressure of less than 50 mm Hg, (2) absence of a stable coronary perfusion pressure during the equilibration period, and (3) inability to pace a heart at a constant rate throughout an experiment.
To measure spontaneous atrial rate in hearts that were not paced, a unipolar electrode was placed on the right atrium. A total of 10 atrial beats before, during, and after each intervention was recorded on chart paper moving at a rate of 50 mm per sec, and the average atrial rate at each time was determined from these records.

[4] = Ki for reduction of 3H-CPX binding, absence of GTP

IC50 (A1-AdoR [1]; presence of 1 mM GTP): 2900 nM
Ki (A1-AdoR [1]; [4]): 1800 nM
Ki (A1-AdoR [1]; Ki for reduction of 3H-CPX binding, presence of 1 mM GTP): 2100 nM
Hill slope (A1-AdoR [1]; absence of GTP): 0.79
Hill slope (A1-AdoR [1]; presence of 1 mM GTP): 0.99
IC50 (A1-AdoR [2]; absence of GTP): 180 nM
IC50 (A1-AdoR [2]; presence of 1 mM GTP): 9500 nM
IC50 (A1-AdoR [2]; presence of 1 mM GTP and 0.1 mM N-ethylmaleimide): 15000 nM
Ki (A1-AdoR [2]; absence of GTP): 62 nM
Ki (A1-AdoR [2]; presence of 1 mM GTP): 3300 nM
Hill slope (A1-AdoR [2]; absence of GTP): 0.87
IC50 with GTP and N-ethylmaleimide relative to GTP alone (A1-AdoR [2]; adipocyte membranes): 1.6 fold
Hill slope (A1-AdoR [2]; presence of 1 mM GTP): 1.0
difference of IC50 in absence and presence of GTP (A1-AdoR [2]; rat, adipocyte membranes): 53 fold
Structure (SMILES): CNC(=O)OC[C@H]1OC(n2cnc3c(N[C@@H]4CCOC4)ncnc32)[C@H](O)[C@@H]1O (stereo partly drawn) [Compound 6 of Example 2, [(5-{6-[((3R)oxolan-3-yl)amino]purin-9-yl}(3 S,2R,4R)-3,4-dihydroxyoxolan-2-yl)methoxy]-N-methylcarboxamide]
atrial rate [3]: 169±7 beats per minute
decrease of atrial rate ([3]; spontaneously-beating hearts): 13%

Structure (SMILES): OC[C@H]1O[C@@H](n2cnc3c(NC4CCCC4)ncnc32)[C@H](O)[C@@H]1O [CPA, N^6-cyclopentyladenosine, reference compound]
IC50 (A1-AdoR [1]; absence of GTP): 2.5 nM
IC50 (A1-AdoR [1]; presence of 1 mM GTP): 28 nM
Ki (A1-AdoR [1]; [4]): 1.7 nM
Ki (A1-AdoR [1]; Ki, high affinity sites, presence of 1 mM GTP, 2-site binding model): 10.4 nM
Hill slope (A1-AdoR [1]; absence of GTP): 1.2
difference of IC50 in absence and presence of 1 mM GTP (A1-AdoR [1]; forebrain membranes): 11 fold
Hill slope (A1-AdoR [1]; presence of 1 mM GTP): 0.53
sites having a high affinity (A1-AdoR [1]; presence of 1 mM GTP, 2-site binding model): 73%
Ki (A1-AdoR [1]; read-out: Ki, low affinity sites, presence of 1 mM GTP, 2-site binding model): 882 nM
Hill slope (A1-AdoR [2]; absence of GTP): 0.88
difference of IC50 in absence and presence of GTP (A1-AdoR [2]; adipocyte membranes): 10 fold
Hill slope (A1-AdoR [2]; presence of 1 mM GTP): 1.0
EC50 ([3]; Cavia porcellus, read-out: EC50 to decrease atrial rate): 68 nM
atrial rate [3]: 1±1 beats per minute
